Data as given in patent US9072675B2, “Non-irritating benzoyl peroxide” (Essential Ingredients, Inc., priority 2010, dated 2015).

Tested on: skin of the infrascapular regions of the back
Assay: Cumulative irritation patch test (12 days, semi-occlusive patches)
Details: 25 subjects, 24 hour semi-occlusive patches over 12 days, daily score capped at 3; maximum 900
Experimental: Twenty-five subjects ages 20-65 were requested to bathe or wash as usual before arrival at the facility. Qualified subjects were then prepared for patch application by having the test sites wiped with alcohol and air-dried. […] Patches were applied for approximately a 24 hour period, then removed and discarded by the subject approximately two hours prior to grading. All induction patches were applied to the same sites unless the degree of reaction (cumulative grade 3) to a material or the adhesive necessitated removal. The skin adjacent to the patches was marked using a surgical marker or other suitable marking pen. Prior to each reapplication, the test sites were evaluated. At the final visit, no patches were applied and the patch sites were graded. Skin responses were evaluated according to the following scale by a technical associate of AMA Laboratories, Inc. (scorer) trained in the evaluation of skin using consistent adequate lighting from a 60-watt incandescent blue day light bulb to illuminate the patch area. All reasonable attempts were made to ensure that the same individual did all of the scoring of reactions to the test articles during the course of the study, and was blinded to the treatment assignments and any previous scores. […]

SMILES: CCCCCCCCCCCCOS(=O)(=O)[O-].[Na+] [Sodium Lauryl Sulfate]
- total cumulative irritancy score: 78
